Source: patent US5128346A, “Derivatives of D-glutamic acid and D-aspartic acid” (priority 1990, dated 1992)
Like-named read-outs stand apart in the source and are kept apart here.

Experiments:
Type-A CCK receptor = molecular target: T1, Type-A CCK receptor (Cavia porcellus, UniProt Q63931); experiment: Radioligand binding, [^125 I]-BH-CCK8, Type-A CCK receptor (pancreatic membranes); set-up: species or system guinea pig
T1 construct: cortex and pancreas were removed and rinsed with ice cold saline; from tissue; host or cells: guinea pig pancreas, membranes
T1 sequence (Q63931 1-430): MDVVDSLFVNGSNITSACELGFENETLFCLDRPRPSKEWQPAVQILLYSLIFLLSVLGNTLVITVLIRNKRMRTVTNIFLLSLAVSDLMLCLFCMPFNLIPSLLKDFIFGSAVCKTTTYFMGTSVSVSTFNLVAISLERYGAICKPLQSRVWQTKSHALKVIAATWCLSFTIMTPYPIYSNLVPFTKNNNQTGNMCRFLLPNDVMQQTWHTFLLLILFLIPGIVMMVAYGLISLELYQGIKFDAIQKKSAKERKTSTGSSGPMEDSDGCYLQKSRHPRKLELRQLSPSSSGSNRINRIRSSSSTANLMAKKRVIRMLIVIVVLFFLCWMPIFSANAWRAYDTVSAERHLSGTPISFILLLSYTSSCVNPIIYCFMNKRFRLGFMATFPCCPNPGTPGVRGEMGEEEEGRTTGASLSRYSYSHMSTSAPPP
Text: (§1) CCK8 [Asp-Tyr(SO3 H)-Met-Gly-Trp-Met-Asp-Phe-NH2 ] was purchased from Beckman Instruments (Palo Alto, Ca/) and Peptide International (Louisville, Ky.). Chymostatin, L-Try-Gly, puromycin, bestatin, EGTA, HEPES and BSA were purchased from Sigma Chemical Co. (St. Louis, Mo.). [^125 I]BH-CCK8 (specific activity, 2200 Ci/mmol) and Aquasol 2 scintillation cocktail were obtained from New England Nuclear (Boston, Ma.). Male guinea pigs, 250 to 325 g, were obtained from Scientific Small Animal Laboratory and Farm (Arlington Heights, Ill.). Collagenase, 300 units per mg, was purchased from Worthington (Frehold, N.J.)
(§2) 1. Guinea Pig Cerebral Cortical and Pancreatic Membrane Preparations
(§3) Cortical and pancreatic membrances were prepared as described (Lin and Miller; J. Pharmacol. Exp. Ther. 232, 775-780, 1985). In brief, cortex and pancreas were removed and rinsed with ice cold saline. Visible fat and connective tissues were removed from the pancreas. Tissues were weighed and homogenized separately in approximately 25 mL of ice-cold 50 mM Tris-HCl buffer, pH 7.4 at 4° C., with a Brinkman Polytron for 30 sec, setting 7. The homogenates were centrifuged for 10 min at 1075×g and pellets were discarded. The supernatants were saved and centrifuged at 38,730×g for 20 min. The resultant pellets were rehomogenized in 25 mL of 50 mM Tris-HCl buffer with a Teflon-glass homogenizer, 5 up and down strokes. The homogenates were centrifuged again at 38,730×g for 20 min. Pellets were then resuspended in 20 mM HEPES, containing 1 mM EGTA., 118 mM NaCl, 5 mM MgCl2, 100 microM bestatin, 3 microM phosphoramidon, pH 7.4 at 22° C., with a Teflon-glass homogenizer, 15 up and down strokes. Resuspension volume for the cortex was 15-18 mL per gm of original wet weight and 60 mL per gm for the pancreas.
(§4) ^125 I]Bolton-Hunter CCK8, and test compounds were diluted with HEPES-EGTA-salt buffer (see above) containing 0.5% bovine serum albumin (BSA). To 1 mL Skatron polystyrene tubes were added 25 microliters of test compounds, 25 miroliters of [^125 I]BH-CCK8, and 200 microliters of membrane suspension. The final BSA concentration was 0.1%. The cortical tissues were incubated at 30° C. for 150 min and pancreatic tissues were incubated at 37° C. for 30 min. Incubations were terminated by filtration using Skatron Cell Harvester and SS32 microfiber filter mats. The specific binding of [^125 I]BH-CCK8, defined as the difference between binding in the absence and presence of 1 microM CCK8, was 85 90% of pancreas. IC50 's were determined from the Hill analysis.

Type-B CCK receptor = molecular target: T2, Type-B CCK receptor (Cavia porcellus, UniProt H0VZC5); experiment: Radioligand binding, [^125 I]-BH-CCK8, Type-B CCK receptor (cerebral cortical membranes); set-up: species or system guinea pig
T2 construct: cortex and pancreas were removed and rinsed with ice cold saline; from tissue; host or cells: guinea pig cerebral cortex, membranes
T2 sequence (H0VZC5 1-426): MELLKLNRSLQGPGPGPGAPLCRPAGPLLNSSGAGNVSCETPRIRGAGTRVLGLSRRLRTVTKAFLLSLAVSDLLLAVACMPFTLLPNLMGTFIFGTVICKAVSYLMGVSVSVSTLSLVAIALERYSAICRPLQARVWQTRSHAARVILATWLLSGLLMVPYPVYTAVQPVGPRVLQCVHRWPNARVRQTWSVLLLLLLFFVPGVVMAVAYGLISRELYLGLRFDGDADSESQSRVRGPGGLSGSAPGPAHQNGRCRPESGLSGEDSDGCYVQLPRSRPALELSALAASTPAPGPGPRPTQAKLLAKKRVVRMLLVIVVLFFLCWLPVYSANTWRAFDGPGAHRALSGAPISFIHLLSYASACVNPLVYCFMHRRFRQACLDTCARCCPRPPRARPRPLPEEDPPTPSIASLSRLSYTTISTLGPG
Text: as §1, §2, §3
as §4, with “The specific binding of [^125 I]BH-CCK8, defined as the difference between binding in the absence and presence of 1 microM CCK8, was 85 90% of pancreas.” left out

[1] = guinea pig cerebral cortical membranes, 30° C., 150 min, IC50 from Hill analysis

SMILES	IC50 (Type-A CCK receptor)	IC50 (Type-B CCK receptor)	IC50, [^125 I]-BH-CCK, Type-B CCK Receptor (Type-B CCK receptor; [1])	IC50 (Type-A CCK receptor; guinea pig pancreatic membranes, 37° C., 30 min, IC50 from Hill analysis)	IC50 (Type-B CCK receptor; [1])
CCCCCN(CCCCC)C(=O)[C@@H](CCC(=O)OCc1ccccc1)NC(=O)c1cc2ccccc2[nH]1 [Example 3, N-(2'-Indolylcarbonyl)-(γ-benzyl ester)-R-Glu-di-n-pentylamide]	240 nM	3500 nM			
CCCCCN(CCCCC)C(=O)[C@@H](CCC(=O)O)NC(=O)c1ccc2ccccc2n1 [Example 6, N-(2,-Quinolylcarbonyl)-R-Glu-N^α,N^α -di-n-pentylamide]	62 nM	4200 nM			
CCCCCN(CCCCC)C(=O)[C@@H](CCC(=O)O)NC(=O)c1cnc2ccccc2n1 [Example 10, N-(2'-Quinoxalylcarbonyl)-R-Glu-N^α,N^α -di-n-pentylamide]	34 nM	6500 nM			
CCCCCN(CCCCC)C(=O)[C@@H](CCC(=O)O)NC(=O)C1CNc2ccccc2N1 (stereo partly drawn) [Example 13, N-(1',2',3',4'-Tetrahydroquinoxalyl-2'-carbonyl)-R-Glu-N^α,N^α -di-n-pentylamide]	92 nM	5600 nM			
CCCCCN(CCCCC)C(=O)[C@@H](CC(=O)OCc1ccccc1)NC(=O)c1cc2ccccc2[nH]1 [Example 18]	820 nM	2900 nM			
CCCCCN(CCCCC)C(=O)[C@@H](CC(=O)O)NC(=O)c1ccc2ccccc2n1 [Example 21, N-(2'-Quinolylcarbonyl)-R-Asp-N^α,N^α -di-n-pentylamide]	210 nM	6600 nM			
CCCCCN(CCCCC)C(=O)[C@@H](CCC(N)=O)NC(=O)c1cc2ccccc2[nH]1 [Example 22, N-(2'-Indolylcarbonyl)-R-Gln-N^α,N^α -di-n-pentylamide]	97 nM	6660 nM			
O=C(CC[C@@H](NC(=O)c1cnc2ccccc2c1)C(=O)NCc1ccccc1)OCc1ccccc1 [Example 25, N-(3'-Quinolylcarbonyl)-(γ-benzyl ester)-R-Glu-benzylamide]	310 nM	> 10000 nM			
COC(=O)[C@@H](NC(=O)[C@@H](CCC(=O)OCc1ccccc1)NC(=O)c1cc2ccccc2[nH]1)c1ccccc1 [Example 36, Methyl N-(2'-Indolylcarbonyl)-(γ-benzylester)-R-Glutamyl-S-phenylglycinate]	200 nM	6300 nM			
COC(=O)[C@@H](NC(=O)[C@@H](CCC(=O)O)NC(=O)c1cc2ccccc2[nH]1)c1ccccc1 [Example 37, Methyl N-(2'-Indolylcarbonyl)-R-Glutamyl-S-phenylglycinate]	49 nM		1-10,000 nM		
O=C(O)CC[C@@H](NC(=O)c1cc2ccccc2[nH]1)C(=O)Nc1ccccc1-c1ccccc1 [Example 38, N-(2'-Indolylcarbonyl)-R-Glu-N^α -(2'-biphenylamide)]	900 nM	7100 nM			
O=C(O)CC[C@@H](NC(=O)c1cc2ccccc2[nH]1)C(=O)NC12CC3CC(CC(C3)C1)C2 [Example 54, N-(2'-Indolylcarbonyl)-R-Glu-N^α -(1,-adamantyl)amide]	660 nM	> 10000 nM			
CCCCCN(CCCCC)C(=O)[C@@H](CCC(=O)O)NC(=O)c1cc2ccccc2n1C [Example 60, N-(N^i -Methyl-2,-Indolylcarbonyl)-R-Glu-N^α,N^α -dipentylamide]	34 nM		1-10,000 nM		
CCOC(=O)CN(Cc1ccccc1)C(=O)[C@@H](CCC(=O)OCc1ccccc1)NC(=O)c1cnc2ccccc2c1 [Example 82, Ethyl N-(3,-Quinolylcarbonyl)-(γ-benzylester)-R-Glutamyl (N-benzyl)glycinate]	250 nM	10000 nM			
CCOC(=O)CN(Cc1ccccc1)C(=O)[C@@H](CCC(=O)O)NC(=O)c1cnc2ccccc2c1 [Example 83, Ethyl N-(3'-Quinolylcarbonyl)-R-Glutamyl(N-benzyl)glycinate]	44 nM	> 10000 nM			
CCOC(=O)CN(Cc1ccccc1)C(=O)[C@@H](CCC(=O)OCc1ccccc1)NC(=O)c1cc(O)c2cccc(O)c2n1 [Example 84]	28 nM	620 nM			
CCOC(=O)CN(Cc1ccccc1)C(=O)[C@@H](CCC(=O)O)NC(=O)c1cc(O)c2cccc(O)c2n1 [Example 85, Ethyl N-(4',8'-Dihydroxyquinolyl-2-carbonyl)-R-Glutamyl (N-benzyl)glycinate]	100 nM	< 10000 nM			
COC(=O)[C@@H](NC(=O)[C@@H](CCC(=O)O)NC(=O)c1ccc2ccccc2c1)c1ccccc1 [Example 89, Methyl N-(2 '-Naphthoyl)-R-Glutamyl-S-phenylglycinate]	140 nM	> 10000 nM			
COC(=O)[C@@H](NC(=O)[C@@H](CCC(=O)O)NC(=O)c1cnc2ccccc2c1)c1ccccc1 [Example 91, Methyl N-(3,-Quinolylcarbonyl)-R-Glutamyl-S-phenylglycinate]	68 nM	> 10000 nM			
COC(=O)[C@@H](NC(=O)[C@@H](CCC(=O)O)NC(=O)c1cc(O)c2cccc(O)c2n1)c1ccccc1 [Example 93, Methyl N-(4',8'-Dihydroxyquinolyl-2-carbonyl)-R-Glutamyl-S-phenylglycinate]	100 nM	≤ 10000 nM			
CCOC(=O)CN(CC(=O)OCC)C(=O)[C@@H](CCC(=O)OCc1ccccc1)NC(=O)c1cnc2ccccc2c1 [Example 106, N-(3'-Quinolylcarbonyl)-(γ-Benzyl ester)-R-Glutamyl-bis(carboethoxymethyl)amide]	93 nM	~10000 nM			
CCOC(=O)CN(CC(=O)OCC)C(=O)[C@@H](CCC(=O)O)NC(=O)c1cnc2ccccc2c1 [Example 107, N-(3,-Quinolylcarbonyl)-R-Glutamyl-bis(carboethoxymethyl)amide]	110 nM	> 10000 nM			
CCOC(=O)CN(CC(=O)OCC)C(=O)[C@@H](CCC(=O)O)NC(=O)c1cc(O)c2cccc(O)c2n1 [Example 109, N-(4',8'-Dihydroxyquinolyl-2-carbonyl)-R-Glutamyl-bis(carboethoxymethyl)amide]				56 nM	620 nM
